Laboratory results: patent publication US8114904B2, “Luminescence quenchers and fluorogenic probes for detection of reactive species” (Versitech Limited & Morningside Ventures Limited, priority 2008, dated 2012)

Tests used:
[1] = tested on: Murine J744.1 macrophages; test: Cell assay: detection of peroxynitrite in living cells by fluorescent microscopy; type: cell-based; settings: for fluorescence observed in the absence of stimulants: J744.1 macrophages incubated with 20 μM probe for 1 hr
Procedure: (§1) Murine J744.1 macrophages (ATCC, USA) were used to investigate the potential of Compound 22 (acetate form of Compound 10) for the detection of peroxynitrite in living cells. J744.1 macrophages were cultured in Dulbecco's Modified Eagle's Medium (DMEM) (Gibco) containing 10% heat-inactivated fetal bovine serum (Gibco) supplemented with 100 U/ml of penicillin and 100 μg/ml streptomycin at 37° C., 5% CO2. They were subcultured by scraping and seeded on six-well plates according to manufacture's instruction. The growth medium was changed every two to three days. Cells were grown to confluence prior to experiment. Murine J744.1 macrophages were incubated with Compound 22 (20 μM) for 1 hr and then washed three times with PBS buffer.
as §1, with “12 and 12a” for “22 (acetate form of Compound 10)”, “12 or 12a” for “22”, “buffer. […] The fluorescence was induced after treatment with LPS (lipopolysaccharide, 1 μg/ml) for 4 hrs (FIG. 9D and FIG. 10B).” for “buffer.”

[2] = UV-visible absorption spectrum; type: physicochemical; settings: 10 μM solution, pH 7.4 0.1 M phosphate buffer, 0.1% DMF
Procedure: Compound 10 obtained in Example 4 was dissolved in pH 7.4 0.1 M phosphate buffer containing 0.1% DMF as cosolvent to form a 10 μM solution.
Compound 12 obtained in Example 5 was dissolved in pH 7.4 0.1 M phosphate buffer containing 0.1% DMF as cosolvent to form a 1 μM solution.
Compound 14 obtained in Example 6 was dissolved in pH 7.4 0.1 M phosphate buffer containing 0.1% DMF as cosolvent to form a 1 μM solution.
Compound 30 obtained in Example 7 was dissolved in pH 7.4 0.1 M phosphate buffer containing 0.1% DMF as cosolvent to form a 10 μM solution. The absorption spectrum of the 10 μM solution of Compound 30 was measured.

[3] = Detection of peroxynitrite: fluorescence spectra after addition of peroxynitrite; settings: 10 μM probe, 0.1 M potassium phosphate buffer pH 7.4, measured after 5 minutes, excitation 520 nm
Procedure: Compound 10 obtained in Example 4 was dissolved in DMF to a concentration of 10 mM, and then the solution was diluted to 10μM by 0.1 M potassium phosphate buffer (pH 7.4). Peroxynitrite solution in 0.1 M NaOH was prepared by the method of Keith and Powell (Keith, W. G. & Powell, R. E.; Kinetics of decomposition of peroxynitrous acid; J. Chem. Soc. A, 1969, 1, 90), and its concentration in the stock solutions used was estimated by using an extinction coefficient of 1670 cm^−1 (mol/L)^−1 at 302 nm (Hughes and Nicklin; The chemistry of pernitrites. Part I. Kinetics of decomposition of pernitrious acid; J. Chem. Soc. A, 1968, 2, 450-452). Peroxynitrite stock solution was added into the solution of Compound 10 to provide various final concentrations, like 0, 2, 6, 10, 20, 30, 50 100, and 200 μM. Fluorescence spectra of the solutions were measured after 5 minutes under the same conditions as mentioned above.
Compound 12 obtained in Example 5 was dissolved in DMF to a concentration of 1 mM, and then the solution was diluted to 1 μM by 0.1 M potassium phosphate buffer (pH 7.4). Peroxynitrite solution in 0.1 M NaOH was prepared by the method of Keith and Powell (Keith, W. G. & Powell, R. E.; Kinetics of decomposition of peroxynitrous acid; J. Chem. Soc. A, 1969, 1, 90), and its concentration in the stock solutions used was estimated by using an extinction coefficient of 1670 cm^−1 (mol/L)^−1 at 302 nm (Hughes and Nicklin; The chemistry of pernitrites. Part I. Kinetics of decomposition of pernitrious acid; J. Chem. Soc. A, 1968, 2, 450-452). Peroxynitrite stock solution was added into the solution of Compound 12 to provide various final concentrations, like 0, 1, 2, 3, 4, 5, 6, and 7 μM. Fluorescence spectra of the solutions were measured after 5 minutes under the same conditions as mentioned above.
Compound 30 obtained in Example 7 was dissolved in DMF to a concentration of 10 mM, and then the solution was diluted to 10 μM by 0.1 M potassium phosphate buffer (pH 7.4). Peroxynitrite solution in 0.1 M NaOH was prepared by the method of Keith and Powell (Keith, W. G. & Powell, R. E.; Kinetics of decomposition of peroxynitrous acid; J. Chem. Soc. A, 1969, 1, 90), and its concentration in the stock solutions used was estimated by using an extinction coefficient of 1670 cm^−1 (mol/L)^−1 at 302 nm (Hughes and Nicklin; The chemistry of pernitrites. Part I. Kinetics of decomposition of pernitrious acid; J. Chem. Soc. A, 1968, 2, 450-452). Peroxynitrite stock solution was added into the solution of Compound 30 to provide various final concentrations. Fluorescence spectra of the solutions were measured after 5 minutes under the same conditions as mentioned above.

[4] = Emission spectra of the probe itself; type: physicochemical; settings: 10 μM, 0.1 M phosphate buffer pH 7.4, excitation 520 nm, Hitachi F7000, 900 V
Procedure: Compound 10 obtained in Example 4 was dissolved in DMF to a concentration of 10 mM, and then the solution was diluted to 10 μM by 0.1 M phosphate buffer (pH 7.4). The fluorescence spectrum of the 10 μM solution of Compound 10 was measured using a Hitachi F2500 fluorescence spectrometer and the photomultiplier voltage was 700 V. The slit width was 2.5 nm for both excitation and emission. The measurement was carried out at an excitation wavelength of 520 nm. The results shown in FIG. 1 indicate that Compound 10 itself is non-fluorescent.
Compound 12 obtained in Example 5 was dissolved in DMF to a concentration of 1 mM, and then the solution was diluted to 1 μM by 0.1 M phosphate buffer (pH 7.4). The fluorescence spectrum of the 1 μM solution of Compound 12 was measured using a Hitachi F2500 fluorescence spectrometer and the photomultiplier voltage was 700 V. The slit width was 2.5 nm for both excitation and emission. The measurement was carried out at an excitation wavelength of 515 nm. The results shown in FIG. 4 indicate that Compound 12 itself is non-fluorescent.
Compound 14 obtained in Example 6 was dissolved in DMF to a concentration of 1 mM, and then the solution was diluted to 1 μM by 0.1 M phosphate buffer (pH 7.4). The fluorescence spectrum of the 1 μM solution of Compound 14 was measured using a Hitachi F2500 fluorescence spectrometer and the photomultiplier voltage was 700 V. The slit width was 2.5 nm for both excitation and emission. The measurement was carried out at an excitation wavelength of 515 nm. The results shown in FIG. 6 indicate that Compound 14 itself is non-fluorescent.
Compound 30 obtained in Example 7 was dissolved in DMF to a concentration of 10 mM, and then the solution was diluted to 10 μM by 0.1 M phosphate buffer (pH 7.4). The fluorescence spectrum of the 10 μM solution of Compound 30 was measured using a Hitachi F7000 fluorescence spectrometer and the photomultiplier voltage was 900 V. The slit width was 2.5 nm for both excitation and emission. The measurement was carried out at an excitation wavelength of 520 nm.

| Compound | fluorescence after treatment with LPS ([1]; 20 μM probe 1 hr, LPS 1 μg/ml for 4 hrs) | fluorescence observed in the absence of stimulants [1] | fluorescence after treatment with LPS and IFN-γ ([1]; 20 μM probe 1 hr, LPS 1 μg/ml and IFN-γ 50 ng/ml for 4 hrs) | fluorescence after additional stimulation by PMA ([1]; 20 μM probe 1 hr, LPS and IFN-γ 4 hrs, then PMA 10 nM for half an hour) | suitability for detection of peroxynitrite in stimulated macrophages ([1]; stimulated Murine J744.1 macrophages) | absorption maximum [2] | fluorescence intensity after the addition of peroxynitrite [3] | fluorescence of the probe itself [4] |
| --- | --- | --- | --- | --- | --- | --- | --- | --- |
| CC(=O)Oc1ccc(N(C)c2ccc3c(c2)Oc2cc(OC(C)=O)ccc2C32OC(=O)c3ccccc32)cc1 (stereo not drawn) [Compound 12a] | induced | very weak fluorescence |  |  |  |  |  |  |
| CC(=O)Oc1cc2c(cc1Cl)C1(OC(=O)c3ccccc31)c1cc(Cl)c(N(C)c3ccc(CCC(=O)C(F)(F)F)cc3)cc1O2 (stereo not drawn) [Compound 22] |  | very weak fluorescence | induced | strong fluorescence | suitable for the detection of peroxynitrite |  |  |  |
| CN(c1ccc(O)cc1)c1ccc2c(ccc3c(-c4ccccc4C(=O)O)c4cc(Cl)c(=O)cc-4oc32)c1 [Compound 30] |  |  |  |  |  | about 540 nm | increases significantly | may be non-fluorescent |
